Assays:
Type in all cases: biochemical
[1] = target: T1, AtHPPD (4-hydroxyphenylpyruvate dioxygenase) (Arabidopsis thaliana, UniProt P93836); test: X-ray co-crystal structure at […] Å
T1 sequence (P93836 1-445): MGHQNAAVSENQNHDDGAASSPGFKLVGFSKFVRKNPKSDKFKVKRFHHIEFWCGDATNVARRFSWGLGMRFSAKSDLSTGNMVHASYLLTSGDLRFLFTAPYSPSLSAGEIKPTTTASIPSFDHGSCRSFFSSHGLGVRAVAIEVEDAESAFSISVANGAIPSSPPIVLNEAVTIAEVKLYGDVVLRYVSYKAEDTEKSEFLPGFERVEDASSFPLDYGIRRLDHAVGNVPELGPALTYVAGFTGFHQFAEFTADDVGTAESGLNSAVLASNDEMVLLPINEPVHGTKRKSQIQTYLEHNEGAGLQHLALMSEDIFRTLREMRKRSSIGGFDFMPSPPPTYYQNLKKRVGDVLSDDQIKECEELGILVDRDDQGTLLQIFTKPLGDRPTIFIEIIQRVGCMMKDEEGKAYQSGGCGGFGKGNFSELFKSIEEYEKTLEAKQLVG

[2] = target: T2, OsHPPD (4-hydroxyphenylpyruvate dioxygenase) (Oryza sativa, UniProt Q6H4V1); test: X-ray co-crystal structure at […] Å
T2 sequence (Q6H4V1 2-446): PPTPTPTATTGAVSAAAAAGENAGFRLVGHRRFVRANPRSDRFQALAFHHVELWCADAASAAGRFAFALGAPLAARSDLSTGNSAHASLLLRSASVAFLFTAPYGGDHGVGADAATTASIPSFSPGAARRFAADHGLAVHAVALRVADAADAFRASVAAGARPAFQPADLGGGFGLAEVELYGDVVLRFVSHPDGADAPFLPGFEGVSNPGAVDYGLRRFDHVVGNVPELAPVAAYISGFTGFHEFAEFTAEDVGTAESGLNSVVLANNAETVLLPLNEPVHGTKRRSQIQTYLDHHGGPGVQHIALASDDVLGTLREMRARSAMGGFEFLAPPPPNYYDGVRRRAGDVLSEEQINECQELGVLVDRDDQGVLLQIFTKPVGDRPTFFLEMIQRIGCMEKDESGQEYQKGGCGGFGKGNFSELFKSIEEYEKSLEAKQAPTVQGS

[3] = target: T2, OsHPPD (4-hydroxyphenylpyruvate dioxygenase); test: coupled enzyme assay
[4] = target: T1, AtHPPD (4-hydroxyphenylpyruvate dioxygenase); test: coupled enzyme assay

| Compound | Ki [1] | Ki [2] | Ki [3] | Ki [4] |
| --- | --- | --- | --- | --- |
| Cc1nnc(NC(=O)c2ccc(C(F)(F)F)n3c(CS(=O)(=O)C(C)C)nnc23)o1 [iptriazopyrid, 3-[(isopropylsulfonyl)-methyl]-N-(5-methyl-1,3,4-oxadiazol-2-yl)-5-(trifluoromethyl)-[1,2,4]-triazolo[4,3-a]-pyridine-8-carboxamide] | 0.0243 ± 0.0003 µM | 0.0333 ± 0.0033 µM |  |  |
| CS(=O)(=O)c1ccc(C(=O)C2C(=O)CCCC2=O)c([N+](=O)[O-])c1 [mesotrione] |  |  | 0.0265 ± 0.0108 µM | 0.0221 ± 0.0045 µM |

Source: paper PMC12203613 (Journal of Agricultural and Food Chemistry, 2025)
